Reference: US8076487B2, “Pyridone derivative and herbicide” (Kumiai Chemical Industry Co., Ltd., priority 2006, dated 2011)

What was measured:
Assay type in all cases: in vivo
[1] = tested on: Japanese bulrush (Scirpus juncoides Roxb.); assay: Test Example 1: herbicidal effect by soil application to paddy field; conditions: paddy field soil application; active ingredient 1,000 g per 1 hectare; wettable powder added dropwise to water surface the day after sowing; examined on the 21st day after application
Outline: (§1)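 Under greenhouse conditions, seeds sown on puddled paddy soil in 100 cm2 pots under 3 cm of standing water received the test compound; injury was assessed with a standard scoring scheme three weeks (day 21) after treatment.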

[2] = tested on: early watergrass (Echinochloa oryzicola Vasing); assay: as above; conditions: paddy field soil application; active ingredient 1,000 g per 1 hectare; wettable powder added dropwise to water surface the day after sowing; examined on the 21st day after application
Outline: as §1

[3] = tested on: heartshape false pickerelweed (Monochoria vaginalis (Burm.f.) C.Presl); assay: as above; conditions: paddy field soil application; active ingredient 1,000 g per 1 hectare; wettable powder added dropwise to water surface the day after sowing; examined on the 21st day after application
Outline: as §1

[4] = tested on: barnyardgrass (Echinochloa crus-galli (L.) P. Beauv. var. crus-galli); assay: Test Example 3: herbicidal effect by application to upland field (foliage treatment); conditions: 14th day after application; for herbicidal effect (index), Barnyardgrass: foliage treatment, plants grown two weeks, 1,000 g active ingredient per hectare; for herbicidal effect, Barnyardgrass: foliage treatment, 1,000 g active ingredient per 1 hectare, greenhouse
Protocol: (§2) [table] Test Example 3 Test on Herbicidal Effect by Application to Upland Field In a 80 cm2 plastic pot, field soil was filled. Seeds of barnyardgrass (Echinochloa crus-galli (L.) P. Beauv. var. crus-galli), green foxtail (Setaria viridis (L.) P. Beauv.), velvetleaf (Abutilon theophrasti medicus), and slender amaranth (Amaranthus viridis L.) were sown and allowed to grow for two weeks in a greenhouse. Thereafter, the wettable powder prepared according to Formulation Example 1 was diluted in water and a 1,000 liter equivalent amount per 1 hectare so that the active ingredient becomes 1,000 g per 1 hectare was sprayed using a small sprayer from a top of the plants through its entire body for foliage treatment. Then, on the 14th day after the application to the plants grew in a greenhouse, the herbicidal effect was examined in accordance with a standard shown in Table 34.

[5] = tested on: green foxtail (Setaria viridis (L.) P. Beauv.); assay: as above; conditions: 14th day after application; for herbicidal effect (index), Green Foxtail: foliage treatment, plants grown two weeks, 1,000 g active ingredient per hectare; for herbicidal effect, Green Foxtail: foliage treatment, 1,000 g active ingredient per 1 hectare, greenhouse
Protocol: as §2

[6] = tested on: slender amaranth (Amaranthus viridis L.); assay: as above; conditions: 14th day after application; for herbicidal effect (index), Slender Amaranth: foliage treatment, plants grown two weeks, 1,000 g active ingredient per hectare; for herbicidal effect, Slender Amaranth: foliage treatment, 1,000 g active ingredient per 1 hectare, greenhouse
Protocol: as §2

[7] = tested on: velvetleaf (Abutilon theophrasti medicus); assay: as above; conditions: 14th day after application; for herbicidal effect (index), Velvetleaf: foliage treatment, plants grown two weeks, 1,000 g active ingredient per hectare; for herbicidal effect, Velvetleaf: foliage treatment, 1,000 g active ingredient per 1 hectare, greenhouse
Protocol: as §2

Structure (SMILES) | herbicidal effect, Scirpus juncoides Roxb. [1] | herbicidal effect, Echinochloa oryzicola Vasing [2] | herbicidal effect, Monochoria vaginalis (Burm. f.) C. Presl [3] | herbicidal effect (index), Barnyardgrass [4] | herbicidal effect (index), Green Foxtail [5] | herbicidal effect (index), Slender Amaranth [6] | herbicidal effect (index), Velvetleaf [7] | herbicidal effect, Barnyardgrass [4] | herbicidal effect, Green Foxtail [5] | herbicidal effect, Slender Amaranth [6] | herbicidal effect, Velvetleaf [7]
CSCCCn1c(C(F)(F)F)ccc(C(=O)C2=C(O)CCCC2=O)c1=O [I-69] | 5 (90% or more of herbicidal effect and crop phytotoxicity) | 5 (90% or more of herbicidal effect and crop phytotoxicity) | 5 (90% or more of herbicidal effect and crop phytotoxicity) | 5 (90% or more of herbicidal effect and crop phytotoxicity) | 5 (90% or more of herbicidal effect and crop phytotoxicity) | 5 (90% or more of herbicidal effect and crop phytotoxicity) | 5 (90% or more of herbicidal effect and crop phytotoxicity) | – | – | – | –
COc1ccc(-n2c(C(F)(F)F)ccc(C(=O)C3=C(O)CCCC3=O)c2=O)cc1 [I-78] | 5 (90% or more of herbicidal effect and crop phytotoxicity) | 5 (90% or more of herbicidal effect and crop phytotoxicity) | 5 (90% or more of herbicidal effect and crop phytotoxicity) | 5 (90% or more of herbicidal effect and crop phytotoxicity) | 5 (90% or more of herbicidal effect and crop phytotoxicity) | 5 (90% or more of herbicidal effect and crop phytotoxicity) | 5 (90% or more of herbicidal effect and crop phytotoxicity) | – | – | – | –
O=C1CCCC(O)=C1C(=O)c1ccc(C(F)(F)F)n(-c2c(F)cccc2F)c1=O [I-104] | 5 (90% or more of herbicidal effect and crop phytotoxicity) | 5 (90% or more of herbicidal effect and crop phytotoxicity) | 5 (90% or more of herbicidal effect and crop phytotoxicity) | 5 (90% or more of herbicidal effect and crop phytotoxicity) | 4 (70 to less than 90% of herbicidal effect and crop phytotoxicity) | 5 (90% or more of herbicidal effect and crop phytotoxicity) | 5 (90% or more of herbicidal effect and crop phytotoxicity) | – | – | – | –
O=C1CCCC(O)=C1C(=O)c1ccc(C(F)(F)F)n(Cc2cccc([N+](=O)[O-])c2)c1=O [I-116] | 5 (90% or more of herbicidal effect and crop phytotoxicity) | 5 (90% or more of herbicidal effect and crop phytotoxicity) | 5 (90% or more of herbicidal effect and crop phytotoxicity) | – | – | – | – | 5 (90% or more of herbicidal effect and crop phytotoxicity) | 3 (50 to less than 70% of herbicidal effect and crop phytotoxicity) | 5 (90% or more of herbicidal effect and crop phytotoxicity) | 5 (90% or more of herbicidal effect and crop phytotoxicity)
Cn1nc(C(F)(F)F)c(Cn2c(C(F)(F)F)ccc(C(=O)C3=C(O)CCCC3=O)c2=O)c1OC(F)F [I-127] | 3 (50 to less than 70% of herbicidal effect and crop phytotoxicity) | 4 (70 to less than 90% of herbicidal effect and crop phytotoxicity) | 4 (70 to less than 90% of herbicidal effect and crop phytotoxicity) | – | – | – | – | 5 (90% or more of herbicidal effect and crop phytotoxicity) | 5 (90% or more of herbicidal effect and crop phytotoxicity) | 5 (90% or more of herbicidal effect and crop phytotoxicity) | 5 (90% or more of herbicidal effect and crop phytotoxicity)
O=C1CCCC(O)=C1C(=O)c1ccc(C(F)(F)F)n(CC2OCCO2)c1=O [I-138] | 5 (90% or more of herbicidal effect and crop phytotoxicity) | 5 (90% or more of herbicidal effect and crop phytotoxicity) | 5 (90% or more of herbicidal effect and crop phytotoxicity) | – | – | – | – | 5 (90% or more of herbicidal effect and crop phytotoxicity) | 4 (70 to less than 90% of herbicidal effect and crop phytotoxicity) | 5 (90% or more of herbicidal effect and crop phytotoxicity) | 5 (90% or more of herbicidal effect and crop phytotoxicity)
CNn1c(C(F)(F)F)ccc(C(=O)C2=C(O)CCCC2=O)c1=O [I-157] | 5 (90% or more of herbicidal effect and crop phytotoxicity) | 5 (90% or more of herbicidal effect and crop phytotoxicity) | 5 (90% or more of herbicidal effect and crop phytotoxicity) | – | – | – | – | 5 (90% or more of herbicidal effect and crop phytotoxicity) | 5 (90% or more of herbicidal effect and crop phytotoxicity) | 5 (90% or more of herbicidal effect and crop phytotoxicity) | 5 (90% or more of herbicidal effect and crop phytotoxicity)
CC(C)Nn1c(C(F)(F)F)ccc(C(=O)C2=C(O)CCCC2=O)c1=O [I-160] | 5 (90% or more of herbicidal effect and crop phytotoxicity) | 5 (90% or more of herbicidal effect and crop phytotoxicity) | 5 (90% or more of herbicidal effect and crop phytotoxicity) | – | – | – | – | 4 (70 to less than 90% of herbicidal effect and crop phytotoxicity) | 3 (50 to less than 70% of herbicidal effect and crop phytotoxicity) | 5 (90% or more of herbicidal effect and crop phytotoxicity) | 5 (90% or more of herbicidal effect and crop phytotoxicity)
CCC(C)Nn1c(C(F)(F)F)ccc(C(=O)C2=C(O)CCCC2=O)c1=O (stereo not drawn) [I-163] | 5 (90% or more of herbicidal effect and crop phytotoxicity) | 5 (90% or more of herbicidal effect and crop phytotoxicity) | 5 (90% or more of herbicidal effect and crop phytotoxicity) | – | – | – | – | 5 (90% or more of herbicidal effect and crop phytotoxicity) | 5 (90% or more of herbicidal effect and crop phytotoxicity) | 5 (90% or more of herbicidal effect and crop phytotoxicity) | 5 (90% or more of herbicidal effect and crop phytotoxicity)
CCN(CC)n1c(C(F)(F)F)ccc(C(=O)C2=C(O)CCCC2=O)c1=O [I-172] | 5 (90% or more of herbicidal effect and crop phytotoxicity) | 5 (90% or more of herbicidal effect and crop phytotoxicity) | 5 (90% or more of herbicidal effect and crop phytotoxicity) | – | – | – | – | 5 (90% or more of herbicidal effect and crop phytotoxicity) | 5 (90% or more of herbicidal effect and crop phytotoxicity) | 5 (90% or more of herbicidal effect and crop phytotoxicity) | 5 (90% or more of herbicidal effect and crop phytotoxicity)
CCCN(CCC)n1c(C(F)(F)F)ccc(C(=O)C2=C(O)CCCC2=O)c1=O [I-173] | 5 (90% or more of herbicidal effect and crop phytotoxicity) | 5 (90% or more of herbicidal effect and crop phytotoxicity) | 5 (90% or more of herbicidal effect and crop phytotoxicity) | – | – | – | – | 4 (70 to less than 90% of herbicidal effect and crop phytotoxicity) | 5 (90% or more of herbicidal effect and crop phytotoxicity) | 4 (70 to less than 90% of herbicidal effect and crop phytotoxicity) | 5 (90% or more of herbicidal effect and crop phytotoxicity)
COCCN(C)n1c(C(F)(F)F)ccc(C(=O)C2=C(O)CCCC2=O)c1=O [I-176] | 5 (90% or more of herbicidal effect and crop phytotoxicity) | 5 (90% or more of herbicidal effect and crop phytotoxicity) | 5 (90% or more of herbicidal effect and crop phytotoxicity) | – | – | – | – | 5 (90% or more of herbicidal effect and crop phytotoxicity) | 5 (90% or more of herbicidal effect and crop phytotoxicity) | 5 (90% or more of herbicidal effect and crop phytotoxicity) | 5 (90% or more of herbicidal effect and crop phytotoxicity)
